Laboratory results: paper PMC7827628, “Effect of Sulfonamides and Their Structurally Related Derivatives on the Activity of ι-Carbonic Anhydrase from Burkholderia territorii” (International Journal of Molecular Sciences, 2021)

Target: BteCAι
Experiment: stopped-flow CO2 hydration assay
Type: biochemical, Burkholderia territorii
Conditions: CO2 substrate; 20 °C, pH 7.5, 10 mM HEPES (methods give 20 mM TRIS pH 8.3, 20 mM NaClO4); 15 min preincubation

SMILES	Ki [nM]
CCN[C@H]1CN(CCCOC)S(=O)(=O)c2sc(S(N)(=O)=O)cc21 [BRZ, brinzolamide]	3700
NS(=O)(=O)c1nnc(NS(=O)(=O)c2ccccc2)s1 [BZA, benzolamide]	724
Cc1ccc(-c2cc(C(F)(F)F)nn2-c2ccc(S(N)(=O)=O)cc2)cc1 [CLX, celecoxib]	960
NS(=O)(=O)c1cc(Cl)c(Cl)c(S(N)(=O)=O)c1 [DCP, dichlorphenamide]	825
NS(=O)(=O)NCCNc1nonc1/C(=N/O)Nc1ccc(F)c(Br)c1 [EPA, epacadostat]	955
NC(N)=Nc1nc(CSCCC(N)=NS(N)(=O)=O)cs1 [FAM, Famotidine]	943
NS(=O)(=O)c1cc2c(cc1Cl)NCNS2(=O)=O [HCT, hydrochlorothiazide]	780
NS(=O)(=O)c1ccc(S(=O)(=O)Nc2cccc3c(Cl)c[nH]c23)cc1 [IND, Indisulam]	638
O=C1NS(=O)(=O)c2ccccc21 [SAC, Saccharin]	7080
CCN1CCCC1CNC(=O)c1cc(S(N)(=O)=O)ccc1OC (centres unmarked) [SLP, Sulpiride]	958
NS(=O)(=O)c1ccc(N2CCCCS2(=O)=O)cc1 [SLT, sulthiame]	954
CC1(C)O[C@@H]2[C@@H](CO[C@@]3(COS(N)(=O)=O)OC(C)(C)O[C@@H]23)O1 [TPM, topiramate]	787
Cc1onc(-c2ccccc2)c1-c1ccc(S(N)(=O)=O)cc1 [VLX, valdecoxib]	934
NS(=O)(=O)Cc1noc2ccccc12 [ZNS, Zonisamide]	806
NCc1ccc(S(N)(=O)=O)cc1 [compound 5, 5]	97
Nc1ccc(S(N)(=O)=O)cc1Br [compound 9, 9]	96
Nc1nccc(Nc2ccc(S(N)(=O)=O)cc2)n1 [compound 19, 19]	93
